The values below come from EP0074229A1, “Triazole gastric anti-secretory agents” (PFIZER INC., priority 1981, dated 1983).

The inhibition in vivo is the relative decrease from the control value, in per cent. A word on the Kb: it is the affinity of an antagonist, worked out from how it opposes an agonist.

One assay concerns gastric acid secretion. Briefly: gastric antisecretory activity in pentagastrin-stimulated Heidenhain pouch dogs. The assay is classed as in vivo. Particulars: conscious Heidenhain pouch dogs, pentagastrin infusion, drug given intravenously; for inhibition in vivo at up to 10 mg/kg: Canis lupus familiaris, iv, doses of 10 mg/kg or less, lowest acid output after drug vs mean output before drug; for inhibition of acid: dosage of 1 mg/kg. The source says:
The activity of the compounds of the present invention as antisecretory agents and histamine-H2 antagonists may be determined by standard pharmacological tests, including for example (1) measuring their ability to antagonize the actions of histamine which are not blocked by an antihistamine such as mepyramine and (2) measuring their ability to inhibit gastric acid secretion in the stomachs of Heidenhain pouch dogs that had previously been treated with pentagastrin in order to stimulate the secretion of gastric acid.
The gastric antisecretory activity of compounds of the present invention was determined in overnight fasted, conscious Heidenhain pouch dogs. Pentagastrin (Peptavlon-Ayerst) was used to stimulate acid output by continuous infusion into a superficial leg vein at doses earlier determined to stimulate near maximal acid output from the gastric pouch. Gastric juice was collected at 30 minute intervals following the start of a pentagastrin infusion and measured to the nearest 0.1 ml. Ten collections were taken for each dog during an experiment. Acid concentration was determined by titrating 1.0 ml of gastric juice to pH 7.4 with 0.1N sodium hydroxide using an Autoburette and a glass electrode pH meter (Radiometer).
[…] Gastric acid . antisecxetory effects were calculated by comparing the lowest acid output after drug administration with the mean acid output immediately before drug.

Another assay deals with T1, H2-receptor (Cavia porcellus, UniProt P47747).
T1 construct: from tissue; host or cells: isolated guinea pig right atria
T1 sequence (P47747 whole entry): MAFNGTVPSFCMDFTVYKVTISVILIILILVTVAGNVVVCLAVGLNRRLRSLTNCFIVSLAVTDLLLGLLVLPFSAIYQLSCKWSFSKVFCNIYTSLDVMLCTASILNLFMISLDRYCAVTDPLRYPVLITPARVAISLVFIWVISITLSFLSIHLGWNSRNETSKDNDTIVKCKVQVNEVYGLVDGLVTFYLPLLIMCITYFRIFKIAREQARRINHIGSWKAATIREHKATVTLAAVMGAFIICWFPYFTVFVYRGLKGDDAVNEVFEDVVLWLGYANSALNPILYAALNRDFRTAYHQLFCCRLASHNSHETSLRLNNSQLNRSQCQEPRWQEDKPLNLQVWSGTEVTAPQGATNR
Briefly: histamine-H2 antagonist activity in isolated guinea pig right atria (histamine dose-response, dose-ratios, pA2). The assay is classed as cell-based, Guinea pigs. As to conditions: antagonism of histamine-stimulated atrial rate, Krebs-Henseleit buffer pH 7.4, 32°. The procedure:
The histamine-H2 antagonist activity of compounds of the present invention was determined by the following procedure: • Guinea pigs are killed rapidly with a blow to the head, the heart removed and the right atria dissected free. […] Individual atrial contractions are followed with a force-displacement transducer connected to a cardiotachometer and Grass polygraph recorder. After obtaining a dose-response curve to histamine, the bath containing each atrium is flushed several times with fresh buffer and the atria re-equilibrated to basal rates. Following the return to basal rate, test compounds are added at selected final concentrations and the histamine dose-response curve is again determined in the presence of antagonist. Results are-expressed as dose-ratios, the ratio of histamine concentrations required to produce one-half of maximal stimulation in the presence and absence of antagonist, and the apparent dissociation constant of the H2-receptor antagonist pA2 is determined.

Where only a bound is given, the exact number is not on record here.

In the assay with gastric acid secretion, `CCNc1cc(-c2nc(CCNC(=O)COc3ccccc3)n[nH]2)ccn1` [Example 17, N-Phenoxyacetyl-2-(3'-(5'-(2-ethylamino-4-pyridyl)-1',2',4'-triazolyl))'ethylamine hemihydrate] displayed an inhibition in vivo at up to 10 mg/kg greater than 50%.
Take `CCNc1cc(-c2nc(CC)n[nH]2)ccn1` [Example 6, 3'-Ethyl-5'-(2-ethylamino-4-pyridyl)-1',2',4'-triazole hemi-hydrate]: the Kb on H2-receptor is no more than 1000 nM.
As for `CCNc1cc(-c2n[nH]c(CCNC(=S)NC)n2)ccn1` [Example 41, N'-(2-(3'-(5'-(2-Ethylamino-4-pyridyl)-1',2',4'-triazolyl))-ethyl)-N'-methylthiourea], the Kb on H2-receptor was no more than 1000 nM. For the same compound, the inhibition of acid entry with gastric acid secretion was “greater than 50%”.
On to `CCNc1cc(-c2n[nH]c(CCNC(=NC#N)NC)n2)ccn1` [Example 39, N-Cyano-N'-(2-(3'-(5'-(2-ethylamino-4-pyridyl)-1',2',4'-triazolyl))ethyl)-N"-methylguanidine], for which, at H2-receptor, the antagonist equilibrium constant (Kb) was no more than 1000 nM.
In turn, `CCNc1cc(-c2n[nH]c(CCNC(=O)c3cccc(OC)c3)n2)ccn1` [Example 26, N-(3-Methoxybenzoyl)-2-(3'-(5'-(2-ethylamino-4-pyridyl)-1',2',4'-triazolyl))ethylamine] registered an inhibition in vivo at up to 10 mg/kg in the assay on gastric acid secretion greater than 50%.
With `CCNc1cc(-c2nc(C)n[nH]2)ccn1` [Example 3, 3'-Methyl-5'-(2-ethylamino-4-pyridyl)-1',2',4'-triazole], the Kb at H2-receptor is no more than 1000 nM. This compound also yielded an inhibition in vivo at up to 10 mg/kg in the assay on gastric acid secretion greater than 50%.
On to `CNc1cc(-c2nc(C)n[nH]2)ccn1` [Example 2, 3'-Methyl-5'-(2-methylamino-4-pyridyl)-1',2',4'-triazole], for which, in the assay on gastric acid secretion, the inhibition in vivo at up to 10 mg/kg is greater than 50%.
With `CCNc1cc(-c2nc(CCNC(=O)C=Cc3cnc(C)s3)n[nH]2)ccn1` [Example 12, N-[3-(2-methyl-5-thiazolyl)acryloyl]-2-[3'-(5'-(2-ethylamino-4-pyridyl)-1',2',4'-triazolyl)]ethylamine], the Kb on H2-receptor was no more than 1000 nM. For the same compound, in the assay with gastric acid secretion, the inhibition in vivo at up to 10 mg/kg was greater than 50% and the inhibition of acid entry is given as “greater than 50%”.
Consider `CCNc1cc(-c2n[nH]c(CCNC(=O)c3cccnc3)n2)ccn1` [Example 34, N-Nicotinoyl-2-(3'-(5'-(2-ethylamino-4-pyridyl)-1',2',4'-triazolyl))ethylamine], for which the Kb at H2-receptor is no more than 1000 nM.
Consider `CCNc1cc(-c2n[nH]c(CCNC(=O)CCc3cccnc3)n2)ccn1` [Example 31, N-(3-Pyridylpropionoyl)-2-(3'-(5'-(2-ethylamino-4-pyridyl)-1',2',4'-triazolyl))ethylamine], for which the antagonist dissociation constant (Kb) on H2-receptor is no more than 1000 nM. The inhibition in vivo at up to 10 mg/kg with gastric acid secretion is greater than 50%.
In the case of `CCNc1cc(-c2n[nH]c(CCNC(=O)c3ccc(CN(C)C)o3)n2)ccn1` [Example 28], the Kb at H2-receptor was no more than 1000 nM.
In the assay with gastric acid secretion, `CCNc1cc(-c2n[nH]c(CCNC(=O)c3ccc(O)nc3)n2)ccn1` [Example 24, N-(6-Hydroxynicotinoyl)-2-(3'-(5'-(2-ethylamino-4-pyridyl)-1',2',4'-triazolyl))ethylamine monohydrate] yielded an inhibition in vivo at up to 10 mg/kg greater than 50%.
The same measure, in the same setting: next, `CCNc1cc(-c2nc(CO)n[nH]2)ccn1` [Example 8, 3'-Hydroxymethyl-5'-(2-ethylamino-4-pyridyl)-l',2',4'-triazole]: greater than 50%.
As to `CCNc1cc(-c2n[nH]c(CCNC(=O)c3ccncc3)n2)ccn1` [Example 35, N-(Isonicotinoyl)-2-(3'-(5'-(2-ethylamino-4-pyridyl)-1',2',4'-triazolyl))ethylamine], in the assay with gastric acid secretion, the inhibition in vivo at up to 10 mg/kg was greater than 50%.
`CCNc1cc(-c2n[nH]c(CCNC(=O)CCc3ccccc3)n2)ccn1` [Example 20, N-(3-Phenylpropionyl)-2-(3'-(5'-(2-ethylamino-4-pyridyl)-1',2',4'-triazolyl))ethylamine] returned an inhibition in vivo at up to 10 mg/kg with gastric acid secretion greater than 50%.
On to `CCNc1cc(-c2n[nH]c(CCNC(N)=O)n2)ccn1` [Example 36, N-(2-(3'-(5'-(2-Ethylamino-4-pyridyl)-1',2',4'-triazolyl))-ethyl)urea hydrate], for which the inhibition in vivo at up to 10 mg/kg in the assay on gastric acid secretion is greater than 50%.
Consider `CCNc1cc(C(=O)NCCc2nc(-c3ccnc(NCC)c3)n[nH]2)ccn1` [Example 27, N-(2-Ethylaminoisonicotinoyl)-2-(3'-(5'-(2-ethylamino-4-pyridyl)-1',2',4'-triazolyl))ethylamine], for which, in the assay with gastric acid secretion, the inhibition in vivo at up to 10 mg/kg was greater than 50%.
Take `CCNc1cc(-c2n[nH]c(CCNC(=O)c3csc(N=C(N)N)n3)n2)ccn1` [Example 29]: the antagonist equilibrium constant (Kb) at H2-receptor is no more than 1000 nM.
In the assay with gastric acid secretion, `CCNc1cc(-c2n[nH]c(CCNC(=O)COc3cccnc3)n2)ccn1` [Example 21, N-(3-Pyridyloxyacetyl)-2-(3'-(5'-(2-ethylamino-4-pyridyl)-1',2',4'-triazolyl))ethylamine bishydrate] returned an inhibition in vivo at up to 10 mg/kg greater than 50%.
